Values of other authors as cited in patent US20100136095A1, “Systems for modulating inflammation” (Searete LLC, a limited liability corporation of the State …, priority 2008, published 2010).

What was measured:
[1] = test system: Src family kinases (Src, Lck, Yes, Fyn); conditions: at nanomolar concentrations
proteasome = conditions: cultured breast cancer cells; disulfiram bound to copper
[2] = infused at 400 mg over one hour, single agent
lethal septic shock = conditions: mice

## Cc1nc(Nc2ncc(C(=O)Nc3c(C)cccc3Cl)s2)cc(N2CCN(CCO)CC2)n1.O [Dasatinib, N-(2-chloro-6-methylphenyl)-2-[[6-[4-(2-hydroxyethyl)-1-piperazinyl]-2-methyl-4-pyrimidinyl]amino]-5-thiazolecarboxamide, monohydrate]
[1]
  inhibition of Src family kinases (Src, Lck, Yes, Fyn): inhibits

## CCN(CC)C(=S)SSC(=S)N(CC)CC [Disulfiram, 1-(diethylthiocarbamoyldisulfanyl)-N,N-diethyl-methanethioamide]
proteasome
  proteasomal activity: inhibits proteasomal activity

## CCN(CC)CCCC(C)Nc1ccnc2cc(Cl)ccc12 (centres unmarked) [Chloroquine]
Src family kinase
  inhibition of CpG-induced Src family kinase activation or its dependent cellular responses: does not inhibit

## CCN(CC)CCCC(C)Nc1ccnc2cc(Cl)ccc12.O=P(O)(O)O.O=P(O)(O)O (centres unmarked) [Chloroquine phosphate, 7-chloro-4-[[4-(diethylamino)-1-methylbutyl]amino]quinoline phosphate (1:2)]
[2]
  tolerability of infusion: without complication

## Cl.Cl.Nc1ccccc1Oc1ccc2c(N)nsc2c1 [Example M62812, 3-amino-6-(2-aminophenoxy)-1,2-benzisothiazole dihydrochloride]
Lethal septic shock
  prevention of lethal septic shock: prevents lethal septic shock
